pIC50: −log10 of the molar value. Where a SMILES comes first, the peptide text is derived from it. Bridges are numbered along the chain shown (N, C = ends). [ ]: non-standard residue; d: D form. hPhe(3,5-F2-4-CF3) = N[C@@H](CCc1cc(F)c(C(F)(F)F)c(F)c1)C(=O)O; NPrPhe(4-CF3) = CCCN[C@@H](Cc1ccc(C(F)(F)F)cc1)C(=O)O; NMeGly(cPent) = CN[C@H](C(=O)O)C1CCCC1; NMeD = CN[C@@H](CC(=O)O)C(=O)O; NMeL = CN[C@@H](CC(C)C)C(=O)O; αMeS = C[C@](N)(CO)C(=O)O; Sar = CNCC(=O)O
Legend:
[1] = molecular target: GDP-bound NRAS wild-type protein (Homo sapiens, UniProt P01111); test: Binding to NRAS by surface plasmon resonance (SPR), KD and KD ratio to KRAS
GDP-bound NRAS wild-type protein, sequence (P01111 whole entry): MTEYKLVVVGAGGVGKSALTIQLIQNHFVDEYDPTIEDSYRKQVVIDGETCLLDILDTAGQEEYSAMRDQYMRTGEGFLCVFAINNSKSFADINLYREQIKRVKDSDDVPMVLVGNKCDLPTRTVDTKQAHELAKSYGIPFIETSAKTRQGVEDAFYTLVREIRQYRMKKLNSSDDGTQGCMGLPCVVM
Procedure, shortened: (§1)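 Each cycle, GDP-bound biotin-Avi RAS was captured (~100–300 RU), compound concentrations were injected low to high for 75 s each at 100 µL/min, then the chip was regenerated. Buffer: HBS pH 7.4, 10 mM MgCl2, 10 µM GDP, 1 mM DTT, 4% DMSO; 30°C. KD from a 1:1 binding model.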

[2] = tested on: human lung cancer strain NCI-H441; format: cell-based
Procedure, shortened: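 Signal came from […] measured per well once the reagent was added. Beforehand, cells were cultured at 37°C and 5% carbon dioxide on a compound series serially diluted in dimethyl sulfoxide.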

HRAS wild-type protein = HRAS wild-type protein (Homo sapiens, UniProt P01112); test: Binding to HRAS by surface plasmon resonance (SPR), KD and KD ratio to KRAS
HRAS wild-type protein, sequence (P01112 whole entry): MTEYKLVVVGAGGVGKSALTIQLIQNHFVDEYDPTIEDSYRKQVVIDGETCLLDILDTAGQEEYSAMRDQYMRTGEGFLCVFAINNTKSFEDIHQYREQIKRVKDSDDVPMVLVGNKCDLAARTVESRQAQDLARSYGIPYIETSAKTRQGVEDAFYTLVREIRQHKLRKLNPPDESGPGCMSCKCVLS
Procedure, shortened: as §1

[3] = ratio of KD for GDP-bound NRAS wild-type protein to KD for KRAS
[4] = ratio of KD for HRAS wild-type protein to KD for KRAS
[5] = ratio of the KD value with respect to GDP-bound NRAS wild-type protein to the KD value with respect to KRAS
[6] = ratio of the KD value with respect to HRAS wild-type protein to the KD value with respect to KRAS
[7] = ratio of KD value for GDP-bound NRAS wild-type protein to KD value for KRAS (SPR)
[8] = ratio of KD value for HRAS wild-type protein to KD value for KRAS (SPR)

Structure (SMILES)	NRAS /KRAS [1, 3]	pIC50 [2]	HRAS /KRAS (HRAS wild-type protein; [4])	NRAS /KRAS [1, 5]	HRAS /KRAS (HRAS wild-type protein; [6])	NRAS /KRAS [1, 7]	HRAS /KRAS (HRAS wild-type protein; [8])
CCO[C@@H]1C[C@H]2C(=O)NC3(CC(C)(C)C3)C(=O)N(C)[C@@H](C3CCCC3)C(=O)N(C)[C@H](C(=O)N3CCCCC3)CC(=O)N(C)[C@H]3CCC/C=C/c4ccc(cc4)C[C@@H](C(=O)N(C)CC(=O)N[C@@H](CCc4cc(F)c(C(F)(F)F)c(F)c4)C(=O)N2C1)N1CC/C=C\C[C@@H](C1=O)N(C)C(=O)CN(C)C(=O)[C@H]([C@@H](C)CC)NC3=O [PP2573]	A (a compound having 10 or more and less than 20 is denoted as A)	8.00	A (a compound having 10 or more and less than 20 is denoted as A)				
CC[C@H](C)[C@@H]1NC(=O)[C@H](CC(C)C)N(C)C(=O)C[C@@H](C(=O)N2CCOCC2)N(C)C(=O)[C@H](C2CCCC2)N(C)C(=O)C2(CCCC2)NC(=O)[C@@H]2CCCN2C(=O)[C@H](CCc2cc(F)c(C(F)(F)F)c(F)c2)NC(=O)CN(C)C(=O)[C@H](Cc2ccc(C(F)(F)F)cc2)N2CCCCC[C@@H](C2=O)N(C)C(=O)CN(C)C1=O [PP0490]		7.30		B (a compound having 3 or more and less than 10 is denoted as B)	B (a compound having 3 or more and less than 10 is denoted as B)		
CC[C@H](C)[C@@H]1NC(=O)[C@H](CC2CC2)N(C)C(=O)C[C@@H](C(=O)N2CCCC2)N(C)C(=O)[C@H](C2CCCC2)N(C)C(=O)C2(CCCC2)NC(=O)[C@@H]2C[C@@H](F)CN2C(=O)[C@H](CCc2cc(F)c(C(F)(F)F)c(F)c2)NC(=O)CN(C)C(=O)[C@H](Cc2ccc(C(F)(F)F)cc2)N2CC/C=C\C[C@@H](C2=O)N(C)C(=O)CN(C)C1=O [PP1503]		8.42				A (a compound having 10 or more and less than 20 is denoted as A)	A (a compound having 10 or more and less than 20 is denoted as A)
CCO[C@@H]1C[C@H]2C(=O)N[C@]3(C)CCCCCC[C@@H](C(=O)N[C@@H]([C@@H](C)CC)C(=O)N(C)CC(=O)N(C)[C@H]4CCCCN(C4=O)[C@@H](Cc4ccc(C(F)(F)F)cc4)C(=O)N(C)CC(=O)N[C@@H](CCc4cc(F)c(C(F)(F)F)c(F)c4)C(=O)N2C1)N(C)C(=O)C[C@@H](C(=O)N1CCOCC1)N(C)C(=O)[C@H](C1CCCC1)N(C)C3=O [PP0992]	B (a compound having 3 or more and less than 10 is denoted as B)	6.10	B (a compound having 3 or more and less than 10 is denoted as B)				
CCO[C@@H]1C[C@H]2C(=O)NC3(CCC3)C(=O)N(C)[C@@H](C(CC)CC)C(=O)N(C)[C@H](C(=O)N3CCCC3)CC(=O)N(C)[C@H]3CCCC/C=C/c4ccc(cc4)C[C@@H](C(=O)N(C)CC(=O)N[C@@H](CCc4ccc(Cl)c(Cl)c4)C(=O)N2C1)N1CC/C=C\C[C@@H](C1=O)N(C)C(=O)CN(C)C(=O)[C@H]([C@@H](C)CC)NC3=O [PP3047]	AA (a compound having 20 or more is denoted as AA)	8.21	A (a compound having 10 or more and less than 20 is denoted as A)				
CCC(CC)[C@H]1C(=O)N(C)[C@H](C(=O)N2CCCC2)CC(=O)N(C)[C@H]2CCC/C=C/c3ccc(cc3)C[C@@H](C(=O)N(C)CC(=O)N[C@@H](CCc3ccc(Cl)c(Cl)c3)C(=O)N3CCC[C@H]3C(=O)NC3(CC(C)(C)C3)C(=O)N1C)N1CC/C=C\C[C@@H](C1=O)N(C)C(=O)CN(C)C(=O)[C@H]([C@@H](C)CC)NC2=O [PP2604]	AA (a compound having 20 or more is denoted as AA)	7.68	A (a compound having 10 or more and less than 20 is denoted as A)				
CCO[C@@H]1C[C@H]2C(=O)NC3(CCC3)C(=O)N(C)[C@@H]([C@@H](C)CC)C(=O)N(C)[C@H](C(=O)N(C)C)CC(=O)N(C)[C@@H](CC)C(=O)N[C@@H]([C@@H](C)CC)C(=O)N(C)CC(=O)N(C)[C@H]3C/C=C\CCN(C3=O)[C@@H](Cc3ccc(C(F)(F)F)cc3)C(=O)N(C)CC(=O)N[C@@H](CCc3cc(F)c(C(F)(F)F)c(F)c3)C(=O)N2C1 [PP1087]	A (a compound having 10 or more and less than 20 is denoted as A)	7.39	A (a compound having 10 or more and less than 20 is denoted as A)				
CCO[C@@H]1C[C@H]2C(=O)NC3(CCCC3)C(=O)N(C)[C@@H](C3CCCC3)C(=O)N(C)[C@H](C(=O)N(C)C)CC(=O)N(C)[C@@H](CC(C)C)C(=O)N[C@@H]([C@@H](C)CC)C(=O)N(C)CC(=O)N(C)[C@H]3CC(C)=CCN(C3=O)[C@@H](Cc3ccc(C(F)(F)F)cc3)C(=O)N(C)CC(=O)N[C@@H](CCc3cc(F)c(C(F)(F)F)c(F)c3)C(=O)N2C1 [PP1031]	C (A compound having a KD ratio of 0.1 or more and less than 3 is denoted as C)	7.06	C (A compound having a KD ratio of 0.1 or more and less than 3 is denoted as C)				
CCO[C@@H]1C[C@H]2C(=O)NC3(CC(C)(C)C3)C(=O)N(C)[C@@H](C(CC)CC)C(=O)N(C)[C@H](C(=O)N(C)C)CC(=O)N(C)[C@@H](CC(C)C)C(=O)N[C@@H]([C@@H](C)CC)C(=O)N(C)CC(=O)N(C)[C@H]3C/C=C\CCN(C3=O)[C@@H](Cc3ccc(C(F)(F)F)cc3)C(=O)N(C)CC(=O)N[C@@H](CCc3ccc(Cl)c(Cl)c3)C(=O)N2C1 [PP2176]		7.28		AA (a compound having 20 or more is denoted as AA)	A (a compound having 10 or more and less than 20 is denoted as A)		
CCO[C@@H]1C[C@H]2C(=O)NC3(CCC3)C(=O)N(C)[C@@H](C3CCCC3)C(=O)N(C)[C@H](C(=O)N3CCOCC3)CC(=O)N(C)[C@@H](Cc3ccc(F)c(F)c3)C(=O)N[C@@H]([C@@H](C)CC)C(=O)N(C)CC(=O)N(C)[C@H]3CCCCCN(C3=O)[C@@H](Cc3ccc(C(F)(F)F)cc3)C(=O)N(C)CC(=O)N[C@@H](CCc3cc(F)c(C(F)(F)F)c(F)c3)C(=O)N2C1 [PP0928]	A (a compound having 10 or more and less than 20 is denoted as A)	6.74	B (a compound having 3 or more and less than 10 is denoted as B)				
CCO[C@@H]1C[C@H]2C(=O)NC3(CCC3)C(=O)N(C)[C@@H](C3CCCC3)C(=O)N(C)[C@H](C(=O)N(C)C)CC(=O)N(C)[C@@H](Cc3cccnc3)C(=O)N[C@@H]([C@@H](C)CC)C(=O)N(C)CC(=O)N(C)[C@H]3CCCCN(C3=O)[C@@H](Cc3ccc(C(F)(F)F)cc3)C(=O)N(C)CC(=O)N[C@@H](CCc3cc(F)c(C(F)(F)F)c(F)c3)C(=O)N2C1 [PP0703]		7.57		C (A compound having a KD ratio of 0.1 or more and less than 3 is denoted as C)	B (a compound having 3 or more and less than 10 is denoted as B)		
CCO[C@@H]1C[C@H]2C(=O)NC3(CCC3)C(=O)N(C)[C@@H](C(CC)CC)C(=O)N(C)[C@H](CC)CC(=O)N(C)[C@@H](CC3CC3)C(=O)N[C@@H]([C@@H](C)CC)C(=O)N(C)CC(=O)N(C)[C@H]3C/C=C\CCN(C3=O)[C@@H](Cc3ccc(C(F)(F)F)cc3)C(=O)N(C)CC(=O)N[C@@H](CCc3cc(F)c(C(F)(F)F)c(F)c3)C(=O)N2C1 [PP1630]		6.84				A (a compound having 10 or more and less than 20 is denoted as A)	A (a compound having 10 or more and less than 20 is denoted as A)
CCCN1C(=O)CN(C)C(=O)CN(C)C(=O)[C@H]([C@@H](C)CC)NC(=O)[C@H](CC(C)C)N(C)C(=O)C[C@@H](C(=O)N(C)C)N(C)C(=O)[C@H](C2CCCC2)N(C)C(=O)[C@](C)(COC)NC(=O)[C@@H]2CCCN2C(=O)[C@H](CCc2cc(F)c(C(F)(F)F)c(F)c2)NC(=O)CN(C)C(=O)[C@@H]1Cc1ccc(C(F)(F)F)cc1 [PP0741] ([NMeL]I[Sar][Sar][NPrPhe(4-CF3)][Sar][hPhe(3,5-F2-4-CF3)]P[αMeS](Me)[NMeGly(cPent)][NMeD]-NMe2; lactam N-11)		7.29		B (a compound having 3 or more and less than 10 is denoted as B)	B (a compound having 3 or more and less than 10 is denoted as B)		
CCC[C@H]1C(=O)N[C@@H]([C@@H](C)CC)C(=O)N(C)CC(=O)N(C)[C@H]2C/C=C\CCN(C2=O)[C@@H](Cc2ccc(C)cc2)C(=O)N(C)CC(=O)N[C@@H](CCc2ccc(C(F)(F)F)c(Cl)c2)C(=O)N2C[C@H](OCC)C[C@H]2C(=O)NC2(CC(C)(C)C2)C(=O)N(C)[C@@H](CC(C)(C)C)C(=O)N(C)[C@H](C(=O)N(C)C)CC(=O)N1C [PP2230]		8.15		A (a compound having 10 or more and less than 20 is denoted as A)	A (a compound having 10 or more and less than 20 is denoted as A)		
CCO[C@@H]1C[C@H]2C(=O)NC3(CC(C)(C)C3)C(=O)N(C)[C@@H](C(CC)CC)C(=O)N(C)[C@H](C(=O)N3CCCC3)CC(=O)N(C)[C@@H](C)C(=O)N[C@@H]([C@@H](C)CC)C(=O)N(C)CC(=O)N(C)[C@H]3C/C=C\CCN(C3=O)[C@@H](Cc3ccc(C)cc3)C(=O)N(C)CC(=O)N[C@@H](CCc3ccc(Cl)c(Cl)c3)C(=O)N2C1 [PP2187]		7.50		AA (a compound having 20 or more is denoted as AA)	A (a compound having 10 or more and less than 20 is denoted as A)		
